Source: the supplement of paper PMC13207355
Counter-ions that a name gives are not always drawn.

Tests used:
Details in all cases: exposure time: 72 h
E13 [1] = patient-derived glioblastoma stem cells of classical subtype; assay: surviving fraction (nuclei count normalised to DMSO); higher = more cells surviving (less toxic)
E21 [2] = patient-derived glioblastoma stem cells of mesenchymal subtype; assay: as above
E28 [3] = patient-derived glioblastoma stem cells of classical subtype; assay: as above
E31 [4] = patient-derived glioblastoma stem cells of proneural subtype; assay: as above
E34 [5] = patient-derived glioblastoma stem cells of proneural subtype; assay: as above
E57 [6] = patient-derived glioblastoma stem cells of mesenchymal subtype; assay: as above
FT3469 [7] = normal neural stem cell line; assay: as above
E13 [8] = assay: phenotypic distance (Euclidean, principal components) from DMSO controls (arbitrary units); higher = stronger morphological change
E21 [9] = assay: as above
E28 [10] = assay: as above
E31 [11] = assay: as above
E34 [12] = assay: as above
E57 [13] = assay: as above
FT3469 [14] = assay: as above
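Wherever phenotypic distance (Euclidean, principal components) from DMSO controls is given: cell Painting imaging in 384-well plates, CellProfiler features reduced to at least 20 principal components, Euclidean distance versus same-plate DMSO vehicle wells (0.1% v/v), median over six images per well.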
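Wherever surviving fraction (nuclei count normalised to DMSO) is given: nuclei counted by high-content imaging of Hoechst-stained cells in laminin-coated 384-well plates, relative to 0.1% DMSO vehicle wells, with staurosporine as cell-death control.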

CNCCc1ccccn1 [Betahistine mesylate]
Details	phenotypic distance	surviving fraction
E13 [1], 4.1 nM	–	0.978
E13 [1], 12.3 nM	–	0.933
E13 [1], 37 nM	–	1.01
E13 [1], 111.1 nM	–	1.13
E13 [1], 333.3 nM	–	0.991
E13 [1], 1000 nM	–	1.05
E13 [1], 3000 nM	–	1.08
E13 [8], 4.1 nM	0.901	–
E13 [8], 12.3 nM	0.868	–
E13 [8], 37 nM	1.14	–
E13 [8], 111.1 nM	0.834	–
E13 [8], 333.3 nM	0.663	–
E13 [8], 1000 nM	0.868	–
E13 [8], 3000 nM	0.634	–
E21 [2], 4.1 nM	–	1.01
E21 [2], 12.3 nM	–	1.06
E21 [2], 37 nM	–	0.973
E21 [2], 111.1 nM	–	0.957
E21 [2], 333.3 nM	–	1.08
E21 [2], 1000 nM	–	1.01
E21 [2], 3000 nM	–	1.17
E21 [9], 4.1 nM	1.28	–
E21 [9], 12.3 nM	1.7	–
E21 [9], 37 nM	0.97	–
E21 [9], 111.1 nM	1.14	–
E21 [9], 333.3 nM	1.32	–
E21 [9], 1000 nM	1.57	–
E21 [9], 3000 nM	1.61	–
E28 [3], 4.1 nM	–	0.99
E28 [3], 12.3 nM	–	1.1
E28 [3], 37 nM	–	1.08
E28 [3], 111.1 nM	–	0.858
E28 [3], 333.3 nM	–	1.04
E28 [3], 1000 nM	–	1.1
E28 [3], 3000 nM	–	1.2
E28 [10], 4.1 nM	0.708	–
E28 [10], 12.3 nM	1.01	–
E28 [10], 37 nM	0.524	–
E28 [10], 111.1 nM	0.891	–
E28 [10], 333.3 nM	0.512	–
E28 [10], 1000 nM	0.607	–
E28 [10], 3000 nM	0.451	–
E31 [4], 4.1 nM	–	0.967
E31 [4], 12.3 nM	–	1.11
E31 [4], 37 nM	–	0.864
E31 [4], 111.1 nM	–	1.01
E31 [4], 333.3 nM	–	0.976
E31 [4], 1000 nM	–	1.09
E31 [4], 3000 nM	–	1.1
E31 [11], 4.1 nM	0.624	–
E31 [11], 12.3 nM	0.892	–
E31 [11], 37 nM	0.655	–
E31 [11], 111.1 nM	0.749	–
E31 [11], 333.3 nM	0.468	–
E31 [11], 1000 nM	0.554	–
E31 [11], 3000 nM	1.08	–
E34 [5], 4.1 nM	–	0.797
E34 [5], 12.3 nM	–	0.969
E34 [5], 37 nM	–	0.928
E34 [5], 111.1 nM	–	1.16
E34 [5], 333.3 nM	–	1.11
E34 [5], 1000 nM	–	1.1
E34 [5], 3000 nM	–	0.927
E34 [12], 4.1 nM	0.696	–
E34 [12], 12.3 nM	0.75	–
E34 [12], 37 nM	0.843	–
E34 [12], 111.1 nM	1.03	–
E34 [12], 333.3 nM	0.558	–
E34 [12], 1000 nM	0.851	–
E34 [12], 3000 nM	1.25	–
E57 [6], 4.1 nM	–	0.99
E57 [6], 12.3 nM	–	0.95
E57 [6], 37 nM	–	0.987
E57 [6], 111.1 nM	–	1.04
E57 [6], 333.3 nM	–	1.01
E57 [6], 1000 nM	–	0.983
E57 [6], 3000 nM	–	0.999
E57 [13], 4.1 nM	4.51	–
E57 [13], 12.3 nM	1.49	–
E57 [13], 37 nM	1.15	–
E57 [13], 111.1 nM	1.23	–
E57 [13], 333.3 nM	0.721	–
E57 [13], 1000 nM	0.773	–
E57 [13], 3000 nM	0.773	–
FT3469 [7], 4.1 nM	–	0.941
FT3469 [7], 12.3 nM	–	1.08
FT3469 [7], 37 nM	–	1.16
FT3469 [7], 111.1 nM	–	0.935
FT3469 [7], 333.3 nM	–	1.23
FT3469 [7], 1000 nM	–	1.18
FT3469 [7], 3000 nM	–	1.19
FT3469 [14], 4.1 nM	0.827	–
FT3469 [14], 12.3 nM	0.751	–
FT3469 [14], 37 nM	0.948	–
FT3469 [14], 111.1 nM	0.634	–
FT3469 [14], 333.3 nM	1.15	–
FT3469 [14], 1000 nM	0.929	–
FT3469 [14], 3000 nM	0.86	–
